Consider 103 compounds from PubChem BioAssay AID1996.

In brackets after ≈: the same amount, converted by molar mass.

For this data set the following is noted: buffer; pH 7.4; 200.0 µM.
As a reminder, the solubility (kinetic) is solubility judged after dilution from a stock solution rather than from solid. For the compound `CC1CCN(CC(=O)NC2CCCCC2)CC1.Cl`, the kinetic solubility was found to be 37.4 µg/mL. The result for `Cc1cccc(C(=O)OCC(=O)N2CCCCCC2)c1O` reads 36 µg/mL (≈ 124 µM); that for `O=C(O)c1ccc(Cn2cc(/C=C\[N+](=O)[O-])c3ccccc32)o1`, over 46.8 µg/mL.

The compound `O=C1CN(C(=S)NC(=O)c2ccccc2[N+](=O)[O-])CCN1` yielded a kinetic solubility of over 46.2 µg/mL. Consider `O=C(Cc1cccs1)Nc1nc(-c2cccnc2)cs1`, for which the kinetic solubility stood at 5.3 µg/mL (≈ 17.6 µM).

With `COc1ccc2c(c1)CC(C(=O)Nc1ccc(Cl)cc1)/C(=N/O)O2` (stereo not drawn), the solubility (kinetic) was under 0.4 µg/mL. Take `Cc1ccc(NS(=O)(=O)c2ccc(C(=O)NCc3ccc(S(N)(=O)=O)cc3)cc2)cc1`: the kinetic solubility stood at 51.7 µg/mL (≈ 113 µM). `C(#Cc1ccccc1)CN1CCOCC1.Cl` had a solubility (kinetic) of over 35.7 µg/mL. For the compound `CC(OC(=O)C1CCC1)C(=O)Nc1cc(Cl)cc(Cl)c1` (stereo not drawn), the kinetic solubility worked out at 2.4 µg/mL (≈ 7.59 µM). In turn, `Cn1c(=O)c2ccccc2n(CC(=O)NC2CCCC2)c1=O` displayed a kinetic solubility of 40.2 µg/mL (≈ 133 µM). The compound `C/C(=N/OC(=O)C1CC1c1ccccc1)c1ccccc1` (stereo not drawn) came in with a solubility (kinetic) of 3.6 µg/mL (≈ 12.9 µM). In the case of `Cc1cccc(C(=O)N[C@H](C(=O)Nc2ccc(C)c(S(=O)(=O)N3CCOCC3)c2)C(C)C)c1`, the kinetic solubility came to 5.4 µg/mL (≈ 11.4 µM). `CC(C)c1ccc(NC2CCCN(C(=O)c3ccoc3)C2)cc1` (stereo not drawn): the kinetic solubility is over 46.9 µg/mL. Turning to `COc1ccc2[nH]cc(CCNC(=O)C3CCCCC3)c2c1`, the kinetic solubility was determined as 42.7 µg/mL (≈ 142 µM). For `Cc1ccc(C(=O)O)cc1NS(=O)(=O)c1ccc2c(c1)oc(=O)n2C`, the solubility (kinetic) came out at 44.8 µg/mL (≈ 124 µM). Regarding `CN(Cc1nc2ccccc2s1)C(=O)c1ccc(F)cc1`, the kinetic solubility was over 45.1 µg/mL.

On to `COCC(C)NC(=O)c1cc2c(ccc3ccccc32)oc1=O` (stereo not drawn), for which the solubility (kinetic) stood at 18.1 µg/mL (≈ 58.1 µM).

`Brc1ccc(OCCCOc2cccc3cccnc23)cc1` registered a solubility (kinetic) of under 0.8 µg/mL.

`Oc1ccc(-c2csc(Nc3ncccn3)n2)cc1`: the kinetic solubility amounted to 1 µg/mL (≈ 3.7 µM). For `CC1SCC(=NOCc2ccccc2)CS1` (stereo not drawn), the solubility (kinetic) came out at 11.5 µg/mL (≈ 45.4 µM). Regarding `CN1CCN(C(=O)C23CCC(C)(C(=O)C2Br)C3(C)C)CC1` (stereo not drawn), the solubility (kinetic) was over 53.6 µg/mL.

With `C=CCOn1c(=O)c(-c2ccc(OCC)cc2)[n+]([O-])c2ccccc21`, the solubility (kinetic) is 6.3 µg/mL (≈ 18.6 µM). Then `COc1ccc(CN2CCC(Cc3ccccc3)CC2)c(C)c1C`, with 17 µg/mL (≈ 52.6 µM). Compound `CC(=O)Oc1ccc(C(=O)Nc2cccc(C(=O)NC(C)(C)C)c2)cc1` had a kinetic solubility of 45 µg/mL (≈ 127 µM). `COc1ccccc1OC(C)C(=O)N1CC(=O)Nc2ccccc21` (stereo not drawn) displayed a solubility (kinetic) of over 49 µg/mL. In the case of `CCOC(=O)c1cc(S(=O)(=O)N2CCOCC2)cn1C`, the solubility (kinetic) worked out at 45.1 µg/mL (≈ 149 µM).

Compound `Cc1cccc(NC(=S)NCc2ccccc2)c1C` showed a solubility (kinetic) of 35.1 µg/mL (≈ 130 µM). The result for `O=C(O)c1ccc2c(=O)n(-c3ccc(F)cc3)c(=S)[nH]c2c1` reads over 47.4 µg/mL. Then `COc1cc(CO)ccc1Oc1nc2ccccc2n2cnnc12`, with over 48.3 µg/mL. Turning to `COC(=O)/C(C#N)=C/c1c(N2CCN(C)CC2)nc2ccccn2c1=O`, the kinetic solubility is over 53 µg/mL. For the compound `O=C(Nc1ccon1)c1ccc(S(=O)(=O)N2CCOCC2)cc1`, the solubility (kinetic) was determined as 47.4 µg/mL (≈ 141 µM). As for `CC(C)CCNC(=O)C(=O)Nc1ccccc1`, the solubility (kinetic) was 2.6 µg/mL (≈ 11.1 µM). Regarding `COC(=O)c1ccc(S(=O)(=O)NCc2ccco2)n1C`, the solubility (kinetic) was 44.3 µg/mL (≈ 148 µM).

`Fc1cccc(Cc2noc(CN3CCOCC3)n2)c1` returned a solubility (kinetic) of over 41.6 µg/mL. The compound `N#Cc1ccc(CSc2nc(N)cc(=O)[nH]2)cc1` came in with a solubility (kinetic) of over 38.7 µg/mL. With `COc1ccc(N2C(=O)C(F)(F)C2c2cccc(F)c2)cc1` (stereo not drawn), the solubility (kinetic) is under 0.7 µg/mL. Turning to `CC1CCN(CCC(=O)N/N=C/c2ccc([N+](=O)[O-])cc2)CC1`, the solubility (kinetic) was over 47.8 µg/mL. Compound `c1csc(-c2nc3ccccc3s2)c1` registered a solubility (kinetic) of 0.7 µg/mL (≈ 3.22 µM). As to `CCc1ccc(C2CC(=O)N(c3cccc(F)c3)C3=C2C(=O)OC3)cc1` (stereo not drawn), the kinetic solubility came out at 9.6 µg/mL (≈ 27.3 µM). `O=C1CSC(c2cccnc2)N1CCc1ccccn1` (stereo not drawn) yielded a solubility (kinetic) of over 42.8 µg/mL.

The compound `CC1CN(C(=O)c2ccc(Oc3ccccc3)cc2)CC(C)O1` (stereo not drawn) gave a kinetic solubility of over 46.7 µg/mL. Then `Cc1csc(C(=O)O)c1NC(=O)c1c(Cl)cccc1Cl`, with 40.7 µg/mL (≈ 123 µM); and `O=C(c1ccco1)c1cn(CC(=O)N2CCCC2)c2ccccc12`, with over 48.4 µg/mL. On to `COC(=O)c1cccc(Nc2ccc([N+](=O)[O-])cn2)c1`, for which the kinetic solubility worked out at 0.3 µg/mL (≈ 1.1 µM). `CC(=O)Nc1ccc(NC(=O)c2ccc(COc3ccccc3)cc2)cc1` yielded a solubility (kinetic) of 0.6 µg/mL (≈ 1.66 µM). With `CCCCn1c(=O)[nH]c2c(oc3ccccc32)c1=O`, the solubility (kinetic) amounted to 1.7 µg/mL (≈ 6.58 µM). Compound `C=C(C)CN(CC)C(=O)CC1C(=O)NCCN1CC(C)(C)C` (stereo not drawn) showed a solubility (kinetic) of 39.6 µg/mL (≈ 128 µM). `Cc1ccc(C)c(NC(=S)NCCCN2CCOCC2)c1` registered a solubility (kinetic) of over 46.1 µg/mL. As to `Cn1c(=O)oc2cc(NC(=O)CCl)ccc21`, the kinetic solubility was found to be 24.2 µg/mL (≈ 101 µM). As for `O=C(CNS(=O)(=O)Cc1ccccc1)NCc1ccccc1`, the solubility (kinetic) was determined as 12.9 µg/mL (≈ 40.5 µM). Consider `Cc1onc(-c2ccccc2)c1C(=O)NCc1cccc(Cl)c1`, for which the kinetic solubility came to 1.1 µg/mL (≈ 3.37 µM).

Compound `COc1ccccc1CNCCc1ccc(F)cc1.O=C(O)C(=O)O` yielded a solubility (kinetic) of over 52.4 µg/mL.

Turning to `O=C(Nc1cccc(S(=O)(=O)N2CCCC2)c1)c1ccc(Cl)nc1`, the solubility (kinetic) came to 15.6 µg/mL (≈ 42.6 µM). `O=C(NCCNC(=O)c1ccccn1)c1ccc(F)cc1` yielded a kinetic solubility of over 43.1 µg/mL. Then `O=[N+]([O-])c1cccnc1SCc1c(F)cccc1Cl`, with under 0.3 µg/mL; and `N#Cc1ccc(/C=C\c2nccc3c2[nH]c2ccccc23)cc1`, with 1.3 µg/mL (≈ 4.4 µM); and `Cc1cc2c(c(=O)o1)C(CCC1CCCCC1)C(C#N)=C(N)O2` (stereo not drawn), with 8 µg/mL (≈ 25.4 µM). Consider `O=S(=O)(NCCc1ccccn1)c1ccc(OC(F)(F)F)cc1`, for which the solubility (kinetic) was 51.9 µg/mL (≈ 150 µM). Consider `O=CN1CCN(C(=O)c2cccc3c2-c2ccccc2C3=O)CC1`, for which the kinetic solubility was over 48.1 µg/mL. Regarding `CC1CC(C)CN(C(=O)COC(=O)COc2ccc(C#N)cc2)C1` (stereo not drawn), the solubility (kinetic) came to 43.5 µg/mL (≈ 132 µM). Then `O=C1CN(C(=O)/C=C/c2ccccc2F)c2ccccc2N1`, with 12.9 µg/mL (≈ 43.5 µM); and `CS(=O)(=O)c1ccc(C(=O)NCc2ccc(F)cc2)cc1`, with 38.5 µg/mL (≈ 125 µM). Compound `CC(C(=O)NC(c1ccccc1)c1ccccc1)N1CCOCC1` (stereo not drawn) had a solubility (kinetic) of 44.9 µg/mL (≈ 138 µM). For `CN(C)C(=O)c1ccc(=O)n(Cc2ccc(Cl)cc2Cl)c1`, the solubility (kinetic) was over 48.8 µg/mL. Compound `CCOC(=O)C(NC(C)=O)C(O)c1ccc([N+](=O)[O-])cc1` (stereo not drawn) returned a solubility (kinetic) of 43.2 µg/mL (≈ 146 µM).

Consider `O=C(c1ccccc1)c1cccc[n+]1[O-]`, for which the kinetic solubility is over 29.9 µg/mL. The result for `CC(C(=O)OCC(=O)c1ccccc1)N1C(=O)C2C3CCC(C3)C2C1=O` (stereo not drawn) reads over 53.3 µg/mL; that for `Cn1c(N)c(C(=O)COC(=O)COc2cccc(Br)c2)c(=O)n(C)c1=O`, 11.3 µg/mL (≈ 26.5 µM). In turn, `CC(C)CC(=O)N1CC(=O)Nc2ccc(F)cc2C1c1ccccc1` (stereo not drawn) came in with a kinetic solubility of over 51.1 µg/mL. In turn, `Cc1ccc(NC(=S)N2CCCCCC2)c(C)c1` yielded a kinetic solubility of over 39.4 µg/mL.

As to `CC1(C(=O)NNC(=S)NCC2CCCO2)CC1(Cl)Cl` (stereo not drawn), the solubility (kinetic) was over 48.9 µg/mL. The compound `O=C(NCCCn1ccnc1)c1cccc(Cl)c1` showed a solubility (kinetic) of over 39.6 µg/mL.

With `NC(=O)c1cccnc1Oc1ccccc1`, the solubility (kinetic) came out at 28.8 µg/mL (≈ 134 µM).

Compound `CCCNC(=O)N1CCN(C(c2ccccc2)c2ccccc2)CC1` returned a solubility (kinetic) of 3.9 µg/mL (≈ 11.6 µM).

`N#CCCN=C(NS(=O)(=O)c1ccccc1)c1ccccc1` gave a kinetic solubility of over 47 µg/mL. Then `CN1CCN(C(=S)c2cn(Cc3ccccc3)c3ccccc23)CC1`, with 30.8 µg/mL (≈ 88.1 µM); and `O=C(NCCOc1ccccc1F)C1CC(=O)N(Cc2ccccc2)C1` (stereo not drawn), with over 53.5 µg/mL; and `CC(=O)Nc1ccc(NC(=O)CC(c2ccccc2)c2ccccc2)cc1`, with 2.1 µg/mL (≈ 5.86 µM). As for `O=C(NC(=S)Nc1ccc2ncccc2c1)c1ccccc1`, the solubility (kinetic) came out at 1.4 µg/mL (≈ 4.55 µM). Consider `Cc1cc(NC(=O)CN2C(=O)c3ccccc3C2=O)no1`, for which the solubility (kinetic) came out at 37.9 µg/mL (≈ 133 µM).

For `CCOc1ccc(NC(=O)CC(Cc2cc(C)cc(C)c2)C(=O)O)cc1` (stereo not drawn), the solubility (kinetic) was over 53.3 µg/mL. `CCCC(=O)Nc1nc(CC(=O)OCC)cs1` returned a kinetic solubility of over 38.4 µg/mL. Then `O=C1CNC(=S)N1Cc1ccc(F)cc1`, with over 33.6 µg/mL; and `Cc1nc2cc(NC(=O)Nc3cccc([N+](=O)[O-])c3)ccc2n1C`, with 0.6 µg/mL (≈ 1.84 µM). `O=[n+]1cc(-c2ccc(Cl)cc2)n([O-])c2c1CCC2` had a solubility (kinetic) of over 39.4 µg/mL.

Consider `Cc1ccc(NC(=O)C2CCN(C(=O)c3ccco3)CC2)cc1`, for which the solubility (kinetic) is over 46.9 µg/mL.

The compound `O=C(CN1CCN(c2ccccc2F)CC1)NCc1ccccc1` yielded a kinetic solubility of 40.8 µg/mL (≈ 125 µM). With `O=C(Nc1cccnc1Cl)c1cc(-c2ccccc2O)on1`, the solubility (kinetic) was 0.9 µg/mL (≈ 2.85 µM).

In turn, `CC1CC(C)CN(C(=O)c2ccc(S(=O)(=O)N3CCCCC3)cc2)C1` (stereo not drawn) gave a solubility (kinetic) of 5.1 µg/mL (≈ 14 µM). The result for `CCc1ccc(N2CC(C(=O)N3CCCC3)CC2=O)cc1` (stereo not drawn) reads 35.2 µg/mL (≈ 123 µM). The compound `COc1ccc(CNCC(O)COc2ccc(C)cc2[N+](=O)[O-])cc1` (stereo not drawn) registered a solubility (kinetic) of over 52 µg/mL. Then `CC(=O)N(CCC(c1ccco1)C(C)C)Cc1ccc(Cl)cc1` (stereo not drawn), with 16.4 µg/mL (≈ 49.1 µM). Compound `COc1ccc(N2CC(C(=O)Nc3ccncc3)CC2=O)cc1` (stereo not drawn) registered a solubility (kinetic) of over 46.7 µg/mL. Compound `O=C(NC(=S)NC1C2CC3CC(C2)CC1C3)c1ccccc1` (stereo not drawn) came in with a solubility (kinetic) of under 0.3 µg/mL. The compound `O=C(CSc1nnc(C2CC2)n1C1CC1)c1cccs1` came in with a solubility (kinetic) of over 45.8 µg/mL. Compound `COc1ccc(N2C(=O)C3CCCN3C2=S)cc1` (stereo not drawn) yielded a kinetic solubility of over 39.3 µg/mL. Then `CC(C)CNC(=O)[C@H](Cc1ccccc1)NC(=O)c1cccs1`, with 9.6 µg/mL (≈ 29.1 µM). In turn, `N#Cc1ccc(C(=O)CN2CCN(c3ccccc3)CC2)cc1` yielded a solubility (kinetic) of 34 µg/mL (≈ 111 µM).

For the compound `COc1ccc(Cl)cc1C(=O)NCCCN1CCOCC1`, the kinetic solubility is over 46.9 µg/mL. Then `CCOc1ccc(CSC(=N)N)cc1Cl.Cl`, with over 42.2 µg/mL. Consider `CCCC1(CCC)NC(=O)N(CC(=O)Nc2ccc(Cl)c(S(=O)(=O)N3CCOCC3)c2)C1=O`, for which the kinetic solubility was 73.2 µg/mL (≈ 146 µM). Take `CC(=O)c1sc2nsc(SCCN3CCOCC3)c2c1N`: the kinetic solubility was over 51.5 µg/mL. The result for `COc1ccc(CCNC(=O)c2ccc(OCc3c(C)noc3C)c(OC)c2)cc1` reads 2.3 µg/mL (≈ 5.6 µM).
